Experimental data from patent US5527703A (Merck & Co., Inc., priority 1994, dated 1996).
pEC50: −log10 of the molar value.

What was measured:
Format in all cases: cell-based, C. elegans
GluClβ = molecular target: T1, GluClβ (Caenorhabditis elegans, UniProt Q17328); test: Activation of current in Xenopus oocytes expressing homomeric GluClβ (voltage clamp)
T1 construct: the full-length open reading frame of the GluCl cDNA encoding the GluClα (52,550 kDa) and GluClβ (49,900kDa) subunits; expressed in transfected cells; host or cells: Xenopus laevis oocytes injected with in vitro RNA
T1 sequence (Q17328 23-434): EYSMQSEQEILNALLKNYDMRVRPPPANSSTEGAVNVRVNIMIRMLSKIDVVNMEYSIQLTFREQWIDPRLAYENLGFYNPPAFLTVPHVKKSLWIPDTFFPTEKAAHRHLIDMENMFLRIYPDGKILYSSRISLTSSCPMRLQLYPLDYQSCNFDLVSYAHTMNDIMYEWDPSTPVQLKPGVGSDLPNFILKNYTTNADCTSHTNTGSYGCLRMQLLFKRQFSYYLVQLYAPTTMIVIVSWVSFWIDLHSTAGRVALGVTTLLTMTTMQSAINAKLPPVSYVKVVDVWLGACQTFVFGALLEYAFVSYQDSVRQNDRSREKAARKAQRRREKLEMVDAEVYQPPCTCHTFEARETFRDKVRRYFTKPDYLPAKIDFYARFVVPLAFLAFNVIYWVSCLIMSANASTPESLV
Procedure: (§1) Xenopus laevis oocytes were prepared and injected using standard methods previously described and known in the art [Arena, J. P., Liu. K. K., Paress, P. S. & Cully. D. F. Mol. Pharmacol. 40, 368-374 (1991 ); Arena, J. P., Liu, K. K., Paress, P. S., Schaeffer, J. M. & Cully, D. F. Mol. Brain Res. 15, 339-348 (1992)]. Adult female Xenopus laevis were anesthetized with 0.17% tricaine methanesulfonate and the ovaries were surgically removed and placed in a dish consisting of (mM): NaCl 1 82.5, KCl 2. MgCl2 1, CaCl2 1.8, HEPES 5 adjusted to pH 7.5 with NaOH (OR-2). Ovarian lobes were broken open, rinsed several times, and gently shaken in OR-2 containing 0.2% collagenase (Sigma, Type 1A) for 2-5 hours. When approximately 50% of the follicular layers were removed, Stage V and VI oocytes were selected and placed in media consisting of (mM): NaCl 86, KCl 2, MgCl2 1, CaCl2 1.8, HEPES 5, Na pyruvate 2.5, theophylline 0.5, gentamicin 0.1 adjusted to pH 7.5 with NaOH (ND-96) for 24-48 hours before injection. Oocytes were injected with 50-70 nl of poly(A^+) RNA (1 mg/ml) or 50 nl of GluClα (0.1-100 ng) and/or GluClβ (0.1-100 ng). Control oocytes were injected with 50 nl of water. Oocytes were incubated for 2-10 days in ND-96 before recording. Incubations and collagenase digestion were carried out at 18° C.
(§2) Recordings were made at room temperature 2-10 days after injection. Unless otherwise indicated recordings were made in standard frog saline consisting of (mM): NaCl 115, KCl 2, MgCl2 1, CaCl2 1.8, HEPES 10 adjusted to pH 7.5 with NaOH. Oocytes were voltage-clamped using a standard two microelectrode amplifier (Dagan 8500 or TEV-200, Minneapolis,Minn.). Pipettes were filled with 3M KCl and had resistances between 0.5-3.0 M.OMEGA.. A plexiglass recording chamber (volume 200 μl) was constantly perfused at a rate of 10 ml/min. The recording chamber was connected to ground with a Ag/AgCl electrode directly, or through a 3M KCl agar bridge when extracellular chloride was varied. For low chloride solutions NaCl was replaced with equimolar concentrations of sodium isethionic acid. For low sodium solutions NaCl was replaced with equimolar KCl or choline Cl. Data were acquired and analyzed using PCLAMP with a TL-1 interface (Axon Instruments, Foster City, Calif.). Membrane current at a holding potential of -80 mV was recorded. The amplitude of drug-sensitive current was determined by subtracting the holding current at -80 mV from the peak current obtained in the presence of drug. Data were filtered at 30 Hz and sampled at 16.6 Hz. Current/voltage relationships (I/V) and reversal potentials (Erev) were determined using a 1-3 sec voltage ramp over the voltage range of -110 to +80 mV. For the ramps, data were filtered at 0.3-3 kHz and sampled at 160 Hz. Current in drug free solution was subtracted from current in the presence of drug to obtain drug-sensitive current/voltage relationships.
(§3) Electrophysiological properties were examined in oocytes injected with in vitro RNA from pGluClα and pGluClβ (FIG. 5).

GluCl α&β [1] = molecular target: T2, GluCl α&β (Caenorhabditis elegans, UniProt G5EBR3+Q17328); test: Modulation of glutamate-sensitive current by IVMPO4, GluCl α&β injected oocytes
T2 construct: the full-length open reading frame of the GluCl cDNA encoding the GluClα (52,550 kDa) and GluClβ (49,900kDa) subunits; expressed in transfected cells; host or cells: Xenopus laevis oocytes injected with in vitro RNA
T2 sequence (G5EBR3 21-461): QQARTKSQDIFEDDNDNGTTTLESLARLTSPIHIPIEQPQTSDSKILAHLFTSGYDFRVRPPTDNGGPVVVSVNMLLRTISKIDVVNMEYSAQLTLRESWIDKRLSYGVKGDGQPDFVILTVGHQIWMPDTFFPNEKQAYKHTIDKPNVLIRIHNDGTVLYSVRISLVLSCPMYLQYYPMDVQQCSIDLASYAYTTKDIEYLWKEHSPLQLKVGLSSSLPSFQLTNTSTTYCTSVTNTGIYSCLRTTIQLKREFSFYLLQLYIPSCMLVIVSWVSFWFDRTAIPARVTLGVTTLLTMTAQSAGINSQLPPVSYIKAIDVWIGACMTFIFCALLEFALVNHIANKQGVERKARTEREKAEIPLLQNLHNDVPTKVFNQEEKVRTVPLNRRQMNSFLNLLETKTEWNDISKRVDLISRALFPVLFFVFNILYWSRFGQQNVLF
T2 sequence (Q17328 23-434): T1 sequence (Q17328 23-434)
Procedure: Xenopus laevis oocytes were prepared and injected using standard methods previously described and known in the art [Arena, J. P., Liu. K. K., Paress, P. S. & Cully. D. F. Mol. Pharmacol. 40, 368-374 (1991 ); Arena, J. P., Liu, K. K., Paress, P. S., Schaeffer, J. M. & Cully, D. F. Mol. Brain Res. 15, 339-348 (1992)]. Adult female Xenopus laevis were anesthetized with 0.17% tricaine methanesulfonate and the ovaries were surgically removed and placed in a dish consisting of (mM): NaCl 1 82.5, KCl 2. MgCl2 1, CaCl2 1.8, HEPES 5 adjusted to pH 7.5 with NaOH (OR-2). Ovarian lobes were broken open, rinsed several times, and gently shaken in OR-2 containing 0.2% collagenase (Sigma, Type 1A) for 2-5 hours. […]
Recordings were made at room temperature 2-10 days after injection. […] Data were acquired and analyzed using PCLAMP with a TL-1 interface (Axon Instruments, Foster City, Calif.). Membrane current at a holding potential of -80 mV was recorded. The amplitude of drug-sensitive current was determined by subtracting the holding current at -80 mV from the peak current obtained in the presence of drug. […] Current/voltage relationships (I/V) and reversal potentials (Erev) were determined using a 1-3 sec voltage ramp over the voltage range of -110 to +80 mV. […]

GluCl α&β [2] = molecular target: T2, GluCl α&β; test: Agonist activation of current in Xenopus oocytes injected with GluClα and GluClβ RNA (two-microelectrode voltage clamp); conditions: for type of drug-sensitive current: GluCl α&β oocytes; for voltage dependence of current: I/V
Procedure: as §1, §2, §3
Several ligand-gated ion channel agonists and antagonists were tested on oocytes injected with GluCl α&β (Table 1). […] 255, 449-464 (1976); Arena, J. P., Liu, K. K., Paress, P. S., Schaeffer, J. M. & Cully, D. F. Mol. Brain Res. 15, 339-348 (1992); Lea, T. J. & Usherwood, P. N. R. Comp. Gen. Pharmacol. 4, 351-363 (1973)].

Q: Which “response of homomeric GluClβ channels” value (GluClβ) does the source give for N[C@@H](CCC(=O)O)C(=O)O [glutamate] here?
A: selectively responsive

Q: And the “threshold for activation of homomeric GluClβ channels” value (GluClβ)?
A: 50 µM

Q: What about the “Hill coefficient (glutamate)” value (GluClβ; GluClβ) of the same compound?
A: 1.9

Q: What about the “voltage dependence of current” value (GluClβ; I/V, GluClβ) of the same compound?
A: steep outwardly rectifying voltage dependence

Q: What about the pEC50 (GluClβ; read-out: EC50 for glutamate, GluClβ alone) of the same compound?
A: 3.42

Q: And the “Hill coefficient (glutamate) with coapplied IVMPO4” value (GluCl α&β [1]; coapplication of IVMPO4 and glutamate)?
A: 1.3

Q: And the “activation of current / sensitivity of coexpressed GluCl α&β” value (GluCl α&β [2])?
A: direct activation of current

Q: And the “glutamate concentrations at which desensitization of the glutamate-sensitive current was observed” value (GluCl α&β [2]; GluCl α&β injected oocytes)?
A: greater than 1 mM

Q: And the “type of drug-sensitive current” value (GluCl α&β [2])?
A: rapidly activating reversible

Q: And the “Hill coefficient (glutamate)” value (GluCl α&β [2]; GluCl α&β, no IVMPO4)?
A: 1.7

Q: And the “voltage dependence of current” value (GluCl α&β [2]; GluCl α&β)?
A: outwardly rectifying

Q: ivermectin-4-O-phosphate [IVMPO4] was tested. Which “response of homomeric GluClβ channels” value (GluClβ) did it give?
A: do not respond

Q: And the “potentiation of glutamate-sensitive current” value (GluCl α&β [1]; IVMPO4 5 nM)?
A: 490±45%

Q: What about the “activation of current / sensitivity of coexpressed GluCl α&β” value (GluCl α&β [2]) of the same compound?
A: direct activation of current

Q: What about the “Hill coefficient (IVMPO4)” value (GluCl α&β [2]; GluCl α&β) of the same compound?
A: 2.5

Q: What about the “time for maximal activation of IVMPO4-sensitive current” value (GluCl α&β [2]; GluCl α&β) of the same compound?
A: 42 ± 2 s

Q: And the “type of drug-sensitive current” value (GluCl α&β [2])?
A: irreversible

Q: And the pEC50 (GluCl α&β [2]; GluCl α&β, read-out: EC50 for IVMPO4 activation of current)?
A: 6.72

Q: What about the “voltage dependence of current” value (GluCl α&β [2]; GluCl α&β) of the same compound?
A: outwardly rectifying

Q: And the “% of Glutamate 10 mM” value (GluCl α&β [2]; agonist 1 μM, -80 mV, % of response elicited with 10 mM glutamate)?
A: 117 ± 13%
